# According to PubChem BioAssay (NCI):
#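 Test compounds were applied to cells in 96-well plates for 48 hours at 5 doses. GI50 is the concentration that inhibits growth by half. TGI: total growth inhibition.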
# Assays:
# Assay in all cases: inhibition of tumour cell growth, NCI panel, 48 h
# K-562 leukemia = test system: K-562 leukemia
# NCI-H460 lung = test system: NCI-H460 lung
# SK-OV-3 ovarian = test system: SK-OV-3 ovarian
# NCI-H522 lung = test system: NCI-H522 lung
# KM12 colon = test system: KM12 colon
# HCC-2998 colon = test system: HCC-2998 colon
# OVCAR-4 ovarian = test system: OVCAR-4 ovarian
# U251 CNS = test system: U251 CNS
# NCI-H226 lung = test system: NCI-H226 lung
# SW-620 colon = test system: SW-620 colon
# CAKI-1 renal = test system: CAKI-1 renal
# HS 578T breast = test system: HS 578T breast
# OVCAR-3 ovarian = test system: OVCAR-3 ovarian
# A549 NSCLC = test system: A549 NSCLC
# TK-10 renal = test system: TK-10 renal
# SR leukemia = test system: SR leukemia
# SN12C renal = test system: SN12C renal
# COLO 205 colon = test system: COLO 205 colon
# OVCAR-5 ovarian = test system: OVCAR-5 ovarian
# SF-539 CNS = test system: SF-539 CNS
# RXF 393 renal = test system: RXF 393 renal
# HOP-92 NSCLC = test system: HOP-92 NSCLC
# UO-31 renal = test system: UO-31 renal
# HCT-116 colon = test system: HCT-116 colon
# SF-268 CNS = test system: SF-268 CNS
# CCRF-CEM leukemia = test system: CCRF-CEM leukemia
# HT29 colon = test system: HT29 colon
# LOX IMVI melanoma = test system: LOX IMVI melanoma
# HCT-15 colon = test system: HCT-15 colon
# IGROV1 ovarian = test system: IGROV1 ovarian
# DU-145 prostate = test system: DU-145 prostate
# HOP-62 NSCLC = test system: HOP-62 NSCLC
# SK-MEL-2 melanoma = test system: SK-MEL-2 melanoma
# HL-60(TB) leukemia = test system: HL-60(TB) leukemia
# BT-549 breast = test system: BT-549 breast
# SNB-19 CNS = test system: SNB-19 CNS
# NCI/ADR-RES ovarian = test system: NCI/ADR-RES ovarian
# MOLT-4 leukemia = test system: MOLT-4 leukemia
# MALME-3M melanoma = test system: MALME-3M melanoma
# OVCAR-8 ovarian = test system: OVCAR-8 ovarian
# RPMI-8226 leukemia = test system: RPMI-8226 leukemia
# SF-295 CNS = test system: SF-295 CNS
# MDA-MB-435 = test system: MDA-MB-435
# NCI-H23 lung = test system: NCI-H23 lung
# SNB-75 CNS = test system: SNB-75 CNS
# PC-3 prostate = test system: PC-3 prostate
# SK-MEL-28 melanoma = test system: SK-MEL-28 melanoma
# ACHN renal = test system: ACHN renal
# M14 melanoma = test system: M14 melanoma
# UACC-257 melanoma = test system: UACC-257 melanoma
# UACC-62 melanoma = test system: UACC-62 melanoma
# A498 renal = test system: A498 renal
# MDA-MB-231 breast = test system: MDA-MB-231 breast
# T-47D breast = test system: T-47D breast
# MCF7 breast = test system: MCF7 breast
# 786-0 renal = test system: 786-0 renal
# SK-MEL-5 melanoma = test system: SK-MEL-5 melanoma
smiles,measurement,setting,value
Nc1c(C(=O)Nc2cccc(C(F)(F)F)c2)sc2nc3c(cc12)C(O)CCC3 (centres undefined),GI50,K-562 leukemia,0.703 µM
same,TGI,K-562 leukemia,> 100 µM
same,GI50,NCI-H460 lung,4.55 µM
same,TGI,NCI-H460 lung,> 100 µM
same,GI50,SK-OV-3 ovarian,15.3 µM
same,TGI,SK-OV-3 ovarian,> 100 µM
same,GI50,NCI-H522 lung,12.7 µM
same,TGI,NCI-H522 lung,> 100 µM
same,GI50,KM12 colon,3.28 µM
same,TGI,KM12 colon,> 100 µM
same,GI50,HCC-2998 colon,> 61.2 µM
same,TGI,HCC-2998 colon,> 100 µM
same,GI50,OVCAR-4 ovarian,3.46 µM
same,TGI,OVCAR-4 ovarian,> 46.6 µM
same,GI50,U251 CNS,6.05 µM
same,TGI,U251 CNS,37.6 µM
same,GI50,NCI-H226 lung,10.8 µM
same,TGI,NCI-H226 lung,> 95.5 µM
same,GI50,SW-620 colon,2.73 µM
same,TGI,SW-620 colon,> 100 µM
same,GI50,CAKI-1 renal,9.52 µM
same,TGI,CAKI-1 renal,> 100 µM
same,GI50,HS 578T breast,6.23 µM
same,TGI,HS 578T breast,96.9 µM
same,GI50,OVCAR-3 ovarian,4.27 µM
same,TGI,OVCAR-3 ovarian,> 49.3 µM
same,GI50,A549 NSCLC,6.85 µM
same,TGI,A549 NSCLC,> 79.4 µM
same,GI50,TK-10 renal,11.8 µM
same,TGI,TK-10 renal,50.2 µM
same,GI50,SR leukemia,0.61 µM
same,TGI,SR leukemia,> 88.1 µM
same,GI50,SN12C renal,11.1 µM
same,TGI,SN12C renal,> 100 µM
same,GI50,COLO 205 colon,3.79 µM
same,TGI,COLO 205 colon,> 100 µM
same,GI50,OVCAR-5 ovarian,> 50 µM
same,TGI,OVCAR-5 ovarian,> 100 µM
same,GI50,SF-539 CNS,4 µM
same,TGI,SF-539 CNS,> 41.9 µM
same,GI50,RXF 393 renal,5.65 µM
same,TGI,RXF 393 renal,50.8 µM
same,GI50,HOP-92 NSCLC,3.31 µM
same,TGI,HOP-92 NSCLC,25.6 µM
same,GI50,UO-31 renal,32.2 µM
same,TGI,UO-31 renal,> 100 µM
same,GI50,HCT-116 colon,3.02 µM
same,TGI,HCT-116 colon,> 100 µM
same,GI50,SF-268 CNS,6.07 µM
same,TGI,SF-268 CNS,> 67.1 µM
same,GI50,CCRF-CEM leukemia,3.4 µM
same,TGI,CCRF-CEM leukemia,> 100 µM
same,GI50,HT29 colon,3.35 µM
same,TGI,HT29 colon,> 100 µM
same,GI50,LOX IMVI melanoma,5.68 µM
same,TGI,LOX IMVI melanoma,> 100 µM
same,GI50,HCT-15 colon,1.93 µM
same,TGI,HCT-15 colon,> 100 µM
same,GI50,IGROV1 ovarian,14.1 µM
same,TGI,IGROV1 ovarian,> 100 µM
same,GI50,DU-145 prostate,5.44 µM
same,TGI,DU-145 prostate,> 57.9 µM
same,GI50,HOP-62 NSCLC,6.82 µM
same,TGI,HOP-62 NSCLC,39.4 µM
same,GI50,SK-MEL-2 melanoma,6.69 µM
same,TGI,SK-MEL-2 melanoma,56.4 µM
same,GI50,HL-60(TB) leukemia,3.22 µM
same,TGI,HL-60(TB) leukemia,> 100 µM
same,GI50,BT-549 breast,7.27 µM
same,TGI,BT-549 breast,> 100 µM
same,GI50,SNB-19 CNS,14.4 µM
same,TGI,SNB-19 CNS,> 100 µM
same,GI50,NCI/ADR-RES ovarian,6.14 µM
same,TGI,NCI/ADR-RES ovarian,> 100 µM
same,GI50,MOLT-4 leukemia,6.7 µM
same,TGI,MOLT-4 leukemia,> 100 µM
same,GI50,MALME-3M melanoma,6.72 µM
same,TGI,MALME-3M melanoma,> 68 µM
same,GI50,OVCAR-8 ovarian,9.66 µM
same,TGI,OVCAR-8 ovarian,> 100 µM
same,GI50,RPMI-8226 leukemia,4.26 µM
same,TGI,RPMI-8226 leukemia,> 100 µM
same,GI50,SF-295 CNS,3.07 µM
same,TGI,SF-295 CNS,38.4 µM
same,GI50,MDA-MB-435,0.322 µM
same,TGI,MDA-MB-435,1.65 µM
same,GI50,NCI-H23 lung,15.2 µM
same,TGI,NCI-H23 lung,> 100 µM
same,GI50,SNB-75 CNS,3.47 µM
same,TGI,SNB-75 CNS,18.1 µM
same,GI50,PC-3 prostate,4.02 µM
same,TGI,PC-3 prostate,28.4 µM
same,GI50,SK-MEL-28 melanoma,6.42 µM
same,TGI,SK-MEL-28 melanoma,> 100 µM
same,GI50,ACHN renal,10.1 µM
same,TGI,ACHN renal,> 68.4 µM
same,GI50,M14 melanoma,3.18 µM
same,TGI,M14 melanoma,99.5 µM
same,GI50,UACC-257 melanoma,> 26.2 µM
same,TGI,UACC-257 melanoma,> 100 µM
same,GI50,UACC-62 melanoma,3.2 µM
same,TGI,UACC-62 melanoma,> 100 µM
same,GI50,A498 renal,0.872 µM
same,TGI,A498 renal,27.7 µM
same,GI50,MDA-MB-231 breast,12.2 µM
same,TGI,MDA-MB-231 breast,> 100 µM
same,GI50,T-47D breast,8.69 µM
same,TGI,T-47D breast,66.8 µM
same,GI50,MCF7 breast,1.39 µM
same,TGI,MCF7 breast,> 100 µM
same,GI50,786-0 renal,13.7 µM
same,TGI,786-0 renal,44.8 µM
same,GI50,SK-MEL-5 melanoma,3.59 µM
same,TGI,SK-MEL-5 melanoma,> 81.6 µM
